{"source": "patent US20240002393A1", "about": "“SUBSTITUTED BENZO[f][l ,2,4JTRIAZOL0[4,3-a][l ,4J[…] GABA A GAMMA! POSITIVE ALLOSTERIC MODULATORS” (Hoffmann-La Roche Inc., priority 2020, published 2024)", "target": "h-GABA-A α2β2γ1 (Homo sapiens (Human), UniProt P47869+Q8N1C3)", "assay": "Two-electrode voltage clamp electrophysiology in Xenopus oocytes expressing GABAA receptors", "type": "cell-based", "details": "for Efficacy (GABA)%: % modulation of GABA EC20 = 100*(Fold increase−1), compound at 30-fold Ki; for Fold increase h-GABA-A α2β2γ1 oocyte @ 30-fold Ki: GABA EC20, test compound at about 30-fold its Ki α2β2γ1, at least 3 oocytes", "protocol": "Xenopus laevis oocytes at maturation stages V-VI were used for the expression of cloned mRNA encoding GABAA receptor subunits. Oocytes ready for RNA micro-injection were bought from Ecocyte, Castrop-Rauxel, Germany and stored in modified Barth's medium (composition in mM: NaCl 88, KCl 1, NaHCO3 2.4, HEPES 10, MgSO4 0.82, CaNO3 0.33, CaCl2 0.33, pH=7.5) at 20° C. until the experiment.\nOocytes were plated in 96-well plates for microinjection using the Roboinject automated instrument (MultiChannelSystems, Reutlingen, Germany). Approximately 50 nL of an aqueous solution containing the RNA transcripts for the subunits of the desired GABAA receptor subtype was injected into each oocyte. […] Oocytes were kept in modified Barth's medium (composition in mM: NaCl 88, KCl 1, NaHCO3 […], HEPES 10, MgSO4 0.82, CaNO3 0.33, CaCl2 0.33, pH=7.5) at 20° C. until the experiment.\nElectrophysiological experiments were performed using the Roboocyte instrument (MultiChannelSystems, Reutlingen, Germany) on days 3 to 5 after the micro-injection of mRNA. During the experiment the oocytes were constantly superfused by a solution containing (in mM) NaCl 90, KCl 1, HEPES 5, MgCl2 1 CaCl2 1 (pH 7.4). Oocytes were impaled by two glass microelectrodes (resistance: 0.5-0.8 MΩ) which were filled with a solution containing KCl 1M+K-acetate 1.5 M and voltage-clamped to −80 mV. The recordings were performed at room temperature using the Roboocyte two-electrode voltage clamp system (Multichannelsystem). After an initial equilibration period of 1.5 min GABA was added for 1.5 min at a concentration evoking approximately 20% of a maximal current response (EC20). After another rest interval of 2.5 min GABA was again added evoking a response of similar amplitude and shape. […] Current traces were recorded at a digitization rate of 10 Hz during and shortly before and after the GABA application.\nEach compound and concentration was tested on at least 3 oocytes. Different oocytes were used for different compound concentrations.\nFor the analysis, the digitized current traces of the first and second GABA response were superimposed and, if necessary, rescaled to equal maximal amplitudes. The ratio between the two responses during the time interval of test compound application was calculated point by point. The extremum of the resulting “ratio trace” was taken as the efficacy (“Fold increase”) of the compound expressed as “% modulation of GABA EC20” (100*(Fold increase−1)).", "data": [{"smiles": "Cc1cc(-c2nnc3n2-c2ccc(Cl)c(Cl)c2C(c2c(F)cccc2F)=N[C@H]3C)on1", "note": "[Example 87, 5-[(4S)-7,8-dichloro-6-(2,6-difluorophenyl)-4-methyl-4H-[1,2,4]triazolo[4,3-a][1,4]benzodiazepin-1-yl]-3-methyl-isoxazole]", "values": [{"measurement": "Efficacy (GABA)%", "result": 42, "unit": "%"}, {"measurement": "Fold increase h-GABA-A α2β2γ1 oocyte @ 30-fold Ki", "result": 1.42}]}, {"smiles": "Cc1ccc(-c2nnc3n2-c2ccc(Cl)c(Br)c2C(c2c(F)cccc2F)=N[C@H]3C)nn1", "note": "[Example 88, (4S)-7-bromo-8-chloro-6-(2,6-difluorophenyl)-4-methyl-1-(6-methylpyridazin-3-yl)-4H-[1,2,4]triazolo[4,3-a][1,4]benzodiazepine]", "values": [{"measurement": "Efficacy (GABA)%", "result": 105, "unit": "%"}, {"measurement": "Fold increase h-GABA-A α2β2γ1 oocyte @ 30-fold Ki", "result": 2.05}]}, {"smiles": "C[C@@H]1N=C(c2c(F)cccc2F)c2c(ccc(Cl)c2Br)-n2c1n[nH]c2=O", "note": "[Example 89, (4S)-7-bromo-8-chloro-6-(2,6-difluorophenyl)-4-methyl-2,4-dihydro-[1,2,4]triazolo[4,3-a][1,4]benzodiazepin-1-one]", "values": [{"measurement": "Efficacy (GABA)%", "result": 88, "unit": "%"}, {"measurement": "Fold increase h-GABA-A α2β2γ1 oocyte @ 30-fold Ki", "result": 1.88}]}, {"smiles": "Cc1nnc2n1-c1ccc(C(F)(F)F)c(Cl)c1C(c1c(F)cccc1F)=N[C@H]2C", "note": "[Example 92, (4S)-7-chloro-6-(2,6-difluorophenyl)-1,4-dimethyl-8-(trifluoromethyl)-4H-[1,2,4]triazolo[4,3-a][1,4]benzodiazepine]", "values": [{"measurement": "Efficacy (GABA)%", "result": 92, "unit": "%"}, {"measurement": "Fold increase h-GABA-A α2β2γ1 oocyte @ 30-fold Ki", "result": 1.92}]}, {"smiles": "Cc1nnc2n1-c1ccc(C(C)(F)F)c(Cl)c1C(c1c(F)cccc1F)=N[C@H]2C", "note": "[Example 93, (4S)-7-chloro-8-(1,1-difluoroethyl)-6-(2,6-difluorophenyl)-1,4-dimethyl-4H-[1,2,4]triazolo[4,3-a][1,4]benzodiazepine]", "values": [{"measurement": "Efficacy (GABA)%", "result": 169, "unit": "%"}, {"measurement": "Fold increase h-GABA-A α2β2γ1 oocyte @ 30-fold Ki", "result": 2.69}]}, {"smiles": "Cc1cc(-c2nnc3n2-c2ccc(Cl)c(Cl)c2C(c2c(F)cccc2F)=N[C@H]3C)ncn1", "note": "[Example 94, (4S)-7,8-dichloro-6-(2,6-difluorophenyl)-4-methyl-1-(6-methylpyrimidin-4-yl)-4H-[1,2,4]triazolo[4,3-a][1,4]benzodiazepine]", "values": [{"measurement": "Efficacy (GABA)%", "result": 47, "unit": "%"}, {"measurement": "Fold increase h-GABA-A α2β2γ1 oocyte @ 30-fold Ki", "result": 1.47}]}, {"smiles": "Cc1nccc(-c2nnc3n2-c2ccc(Cl)c(Cl)c2C(c2c(F)cccc2F)=N[C@H]3C)n1", "note": "[Example 95, (4S)-7,8-dichloro-6-(2,6-difluorophenyl)-4-methyl-1-(2-methylpyrimidin-4-yl)-4H-[1,2,4]triazolo[4,3-a][1,4]benzodiazepine]", "values": [{"measurement": "Efficacy (GABA)%", "result": 53, "unit": "%"}, {"measurement": "Fold increase h-GABA-A α2β2γ1 oocyte @ 30-fold Ki", "result": 1.53}]}, {"smiles": "Cc1cc(-c2nnc3n2-c2ccc(Cl)c(Cl)c2C(c2c(F)cccc2F)=N[C@H]3C)nc(C)n1", "note": "[Example 96, (4S)-7,8-dichloro-6-(2,6-difluorophenyl)-1-(2,6-dimethylpyrimidin-4-yl)-4-methyl-4H-[1,2,4]triazolo[4,3-a][1,4]benzodiazepine]", "values": [{"measurement": "Efficacy (GABA)%", "result": 52, "unit": "%"}, {"measurement": "Fold increase h-GABA-A α2β2γ1 oocyte @ 30-fold Ki", "result": 1.52}]}, {"smiles": "Cc1ccc2c(c1Cl)C(c1c(F)cccc1F)=N[C@@H](C)c1nnc(C)n1-2", "note": "[Example 97, (4S)-7-chloro-6-(2,6-difluorophenyl)-1,4,8-trimethyl-4H-[1,2,4]triazolo[4,3-a][1,4]benzodiazepine]", "values": [{"measurement": "Efficacy (GABA)%", "result": 148, "unit": "%"}, {"measurement": "Fold increase h-GABA-A α2β2γ1 oocyte @ 30-fold Ki", "result": 2.48}]}, {"smiles": "CC[C@@H]1N=C(c2c(F)cccc2F)c2c(ccc(Br)c2Cl)-n2c(C)nnc21", "note": "[Example 98, (4S)-8-bromo-7-chloro-6-(2,6-difluorophenyl)-4-ethyl-1-methyl-4H-[1,2,4]triazolo[4,3-a][1,4]benzodiazepine]", "values": [{"measurement": "Efficacy (GABA)%", "result": 107, "unit": "%"}, {"measurement": "Fold increase h-GABA-A α2β2γ1 oocyte @ 30-fold Ki", "result": 2.07}]}, {"smiles": "Cc1nnc2n1-c1ccc(C(F)F)c(Cl)c1C(c1c(F)cccc1F)=N[C@H]2C", "note": "[Example 99, (4S)-7-chloro-8-(difluoromethyl)-6-(2,6-difluorophenyl)-1,4-dimethyl-4H-[1,2,4]triazolo[4,3-a][1,4]benzodiazepine]", "values": [{"measurement": "Efficacy (GABA)%", "result": 135, "unit": "%"}, {"measurement": "Fold increase h-GABA-A α2β2γ1 oocyte @ 30-fold Ki", "result": 2.35}]}, {"smiles": "COC[C@@H]1N=C(c2c(F)cccc2F)c2c(ccc(Br)c2Cl)-n2c(C)nnc21", "note": "[Example 100, (4R)-8-bromo-7-chloro-6-(2,6-difluorophenyl)-4-(methoxymethyl)-1-methyl-4H-[1,2,4]triazolo[4,3-a][1,4]benzodiazepine]", "values": [{"measurement": "Efficacy (GABA)%", "result": 64, "unit": "%"}, {"measurement": "Fold increase h-GABA-A α2β2γ1 oocyte @ 30-fold Ki", "result": 1.64}]}, {"smiles": "Cc1nnc2n1-c1ccc(Br)c(Cl)c1C(c1c(F)cccc1F)=N[C@H]2CO", "note": "[Example 101, [(4R)-8-bromo-7-chloro-6-(2,6-difluorophenyl)-1-methyl-4H-[1,2,4]triazolo[4,3-a][1,4]benzodiazepin-4-yl]methanol]", "values": [{"measurement": "Efficacy (GABA)%", "result": 119, "unit": "%"}, {"measurement": "Fold increase h-GABA-A α2β2γ1 oocyte @ 30-fold Ki", "result": 2.19}]}, {"smiles": "Cc1nnc2n1-c1ccc(I)c(Cl)c1C(c1c(F)cccc1F)=N[C@H]2C", "note": "[Example 102, (4S)-7-chloro-6-(2,6-difluorophenyl)-8-iodo-1,4-dimethyl-4H-[1,2,4]triazolo[4,3-a][1,4]benzodiazepine]", "values": [{"measurement": "Efficacy (GABA)%", "result": 89, "unit": "%"}, {"measurement": "Fold increase h-GABA-A α2β2γ1 oocyte @ 30-fold Ki", "result": 1.89}]}, {"smiles": "C[C@@H]1N=C(c2c(F)cccc2F)c2c(ccc(C(F)(F)F)c2Cl)-n2c(CO)nnc21", "note": "[Example 103, [(4S)-7-chloro-6-(2,6-difluorophenyl)-4-methyl-8-(trifluoromethyl)-4H-[1,2,4]triazolo[4,3-a][1,4]benzodiazepin-1-yl]methanol]", "values": [{"measurement": "Efficacy (GABA)%", "result": 123, "unit": "%"}, {"measurement": "Fold increase h-GABA-A α2β2γ1 oocyte @ 30-fold Ki", "result": 2.23}]}, {"smiles": "COC[C@@H]1N=C(c2c(F)cccc2F)c2c(ccc(C(F)(F)F)c2Cl)-n2c(C)nnc21", "note": "[Example 105, (4R)-7-chloro-6-(2,6-difluorophenyl)-4-(methoxymethyl)-1-methyl-8-(trifluoromethyl)-4H-[1,2,4]triazolo[4,3-a][1,4]benzodiazepine]", "values": [{"measurement": "Efficacy (GABA)%", "result": 75, "unit": "%"}, {"measurement": "Fold increase h-GABA-A α2β2γ1 oocyte @ 30-fold Ki", "result": 1.75}]}, {"smiles": "Cc1nnc2n1-c1ccc(C(F)(F)F)c(Cl)c1C(c1c(F)cccc1F)=N[C@H]2CO", "note": "[Example 106, [(4R)-7-chloro-6-(2,6-difluorophenyl)-1-methyl-8-(trifluoromethyl)-4H-[1,2,4]triazlo[4,3-a][1,4]benzodiazepin-4-yl]methanol]", "values": [{"measurement": "Efficacy (GABA)%", "result": 121, "unit": "%"}, {"measurement": "Fold increase h-GABA-A α2β2γ1 oocyte @ 30-fold Ki", "result": 2.21}]}, {"smiles": "C[C@@H]1N=C(c2c(F)cccc2F)c2c(ccc(C(F)(F)F)c2Cl)-n2cnnc21", "note": "[Example 107, (4S)-7-chloro-6-(2,6-difluorophenyl)-4-methyl-8-(trifluoromethyl)-4H-[1,2,4]triazolo[4,3-a][1,4]benzodiazepine]", "values": [{"measurement": "Efficacy (GABA)%", "result": 147, "unit": "%"}, {"measurement": "Fold increase h-GABA-A α2β2γ1 oocyte @ 30-fold Ki", "result": 2.47}]}, {"smiles": "CCc1ccc2c(c1Cl)C(c1c(F)cccc1F)=N[C@@H](C)c1nnc(C)n1-2", "note": "[Example 109, (4S)-7-chloro-6-(2,6-difluorophenyl)-8-ethyl-1,4-dimethyl-4H-[1,2,4]triazolo[4,3-a][1,4]benzodiazepine]", "values": [{"measurement": "Efficacy (GABA)%", "result": 230, "unit": "%"}, {"measurement": "Fold increase h-GABA-A α2β2γ1 oocyte @ 30-fold Ki", "result": 3.30}]}]}
